Measurements as given in publication PMC10885983 (Antibiotics, 2024).
≈ marks a conversion by molar mass, not a printed value. Like-named read-outs stand apart in the source and are kept apart here.

What was measured:
[1] = cited from earlier work
[2] = design: method as in PMID 26312207; settings: humans; cited from earlier work
[3] = Pharmacokinetics of rhodomyrtone in rats after a single oral dose (HPLC-UV plasma analysis, non-compartment model); format: in vivo, Sprague Dawley rats; settings: for AUC(0-t): read-out: AUC0–8; for Tmax / Vd/F: po; for k el: read-out: λz (converted)
Procedure: The HPLC method was used to quantify the concentration of rhodomyrtone in rat plasma after a single oral administration of 50 and 100 mg/kg. Blood samples were collected from tail veins at 0, 0.25, 0.5, 1, 2, 3, 4, 5, 6, 7 and 8 h. Rat plasma samples were prepared as described in Section 3.3. Rhodomyrtone was analyzed using a Bondapak C18 HPLC column at 25 °C. […] After several trials, the mobile phase was optimized to achieve good resolution and symmetric peak shapes for both rhodomyrtone and papaverine. […] An appropriate wavelength at 302 nm gave good sensitivity, with no interfering substance of other components. […] The curve of the rhodomyrtone concentration–time profiles was fitted in a non-compartment pharmacokinetic model due to the whole organism as a single compartment where the drug distributes homogeneously and instantaneously, resulting in a constant volume of distribution. The non-compartment model is multifaceted, and it is acceptable for bioequivalence studies.
An aliquot of each rat plasma sample (100 µL) or validation sample was pipetted into a 1.5 mL microcentrifuge tube, spiked with 25 µL papaverine working standard, then the rat plasma was deproteinized with 75 µL acetonitrile, mixed for 30 s and dropped off 5 min to precipitate the protein. The insoluble content was separated from plasma by centrifugation at 5000× g at 10 °C for 15 min, and we collected the supernatant. All samples were filtered through a 0.22 μm PTFE membrane filter. Subsequently, each sample was transferred into glass insert vials. The HPLC injection volume was 80 µL.
HPLC system consisted of Waters Alliance 2695, a model 2487 UV-Vis detector (Waters Associates, Milford, MA, USA). The maximum UV absorbance of rhodomyrtone was detected from 250 to 310 nm. Therefore, the detection wavelength was set at wavelength 302 nm. The chromatographic data were collected and analyzed using Millenium 32® software. Waters Bondapak C18 column, 5 μm, 4.6 mm × 150 mm, was used to set the standard for HPLC drug analytical measurement procedure. The mobile phase consisted of a mixture of acetonitrile and deionized water (80:20% v/v). The mobile phase was pre-filtered through a 0.20 μm filter and was delivered at a rate of 1 mL/min.
Male Sprague Dawley rats weighing 250–350 g were housed in separate stainless cages under a controlled environment (temperature at 22 ± 2 °C and relative humidity of 55 ± 10% with 12 h light and 12 h dark cycles) at the Southern Laboratory Animal Facility, Faculty of Science, Prince of Songkla University, Thailand. During the experimental period, they received a standard rodent diet with free access to ad libitum drinking water. Rats were divided into two groups, each consisting of 12 animals. Each group received a single oral dose of rhodomyrtone (dissolved in medium-chain triglyceride) at 50 mg/kg body weight (Group 1) and 100 mg/kg body weight (Group 2). The animals were fasted for 10 h prior to the experiment. An initial blood sample was taken by clipping the end of the animals’ tails. Blood samples (500 μL) were collected at time intervals of 0 (predose), 0.25, 0.5, 1, 2, 3, 4, 5, 6, 7 and 8 h. The samples were transferred to a heparinized microcentrifuge tube and centrifuged at 2500× g at 10 °C for 10 min. The plasma samples were stored at −80 °C until HPLC analysis.
The individual plasma concentration–time profiles were visually inspected to determine the maximum plasma concentration (Cmax), the minimum plasma concentration (Cmin) and the time to maximum plasma concentration (tmax). WinNonlin Version 1.1 (Scientific Consulting, Apex, NC, USA) was used to analyze the data and calculate for elimination half-life time (t1/2), elimination rate constant (λz), volume of distribution (Vz/F), area under the concentration–time curve between 0 and 8 h (AUC0–8) and the area under the concentration–time curve between 0 and infinity (AUC0–∞). The results were expressed as mean values ± standard deviation (SD).

[4] = Bench-top stability in plasma at 25 °C; format: in vitro ADME, rat; settings: for Bench-top stability, Accuracy (%): n = 5
Procedure: The mean recovery was determined at low, medium and high concentrations from five replicates. The long-term storage stability at −80 °C was determined after 15, 30, 60 and 90 d. Bench-top stability testing was also conducted. […] The freeze–thaw cycles were stabilized. Rhodomyrtone was spiked in blank plasma, then stored in a freezer (−20 °C) and thawed every 24 h at room temperature (25 °C) for three cycles prior to extraction.

[5] = Freeze–thaw stability in plasma; format: in vitro ADME, rat; settings: n = 5
Procedure: (§1) The mean recovery was determined at low, medium and high concentrations from five replicates. The long-term storage stability at −80 °C was determined after 15, 30, 60 and 90 d. Bench-top stability testing was also conducted. Samples were spiked in blank plasma and extracted, then analyzed in three replications at 25 °C for 0, 1, 2, 4, 6 and 8 h. The freeze–thaw cycles were stabilized. Rhodomyrtone was spiked in blank plasma, then stored in a freezer (−20 °C) and thawed every 24 h at room temperature (25 °C) for three cycles prior to extraction.

[6] = Long-term storage stability in plasma at −80 °C; format: in vitro ADME, rat; settings: after 15, 30, 60 and 90 d
Procedure: as §1

[7] = system: Staphylococcus epidermidis ATCC 35984 (biofilm positive); design: method as in PMID 34067029; settings: cited from earlier work
[8] = system: Bacillus cereus; design: method as in PMID 34067029; settings: cited from earlier work
[9] = system: Streptococcus mutans; design: method as in PMID 19303274; settings: cited from earlier work
[10] = system: Staphylococcus aureus ATCC 29213; design: method as in PMID 23019189, PMID 34067029; settings: cited from earlier work
[11] = system: Staphylococcus aureus clinical isolated; design: method as in PMID 30583020; settings: cited from earlier work
[12] = system: MRSA clinical isolated; settings: cited from earlier work
[13] = system: staphylococcal isolates; settings: most staphylococcal isolates; no reference given; cited from earlier work
[14] = system: MRSA; settings: cited from earlier work
[15] = design: method as in PMID 32793420; settings: cited from earlier work
[16] = system: S. aureus or MRSA; design: method as in PMID 23029218; settings: 45 passages of stepwise isolation of S. aureus or MRSA on Luria-Bertani agar with rhodomyrtone; cited from earlier work
[17] = rat, in vivo, po, cited from earlier work
[18] = male, Sprague Dawley, plasma, rat, single oral dose 50 mg/kg, n = 12
[19] = male, Sprague-Dawley, plasma, rat, single oral dose 50 mg/kg, n = 12
[20] = male, Sprague-Dawley, plasma, rat, single oral dose 100 mg/kg, n = 12

SMILES: CN[C@H](CC(C)C)C(=O)N[C@H]1C(=O)N[C@@H](CC(N)=O)C(=O)N[C@H]2C(=O)N[C@H]3C(=O)N[C@H](C(=O)N[C@H](C(=O)O)c4cc(O)cc(O)c4-c4cc3ccc4O)[C@H](O)c3ccc(c(Cl)c3)Oc3cc2cc(c3O[C@@H]2O[C@H](CO)[C@@H](O)[C@H](O)[C@H]2O[C@H]2C[C@](C)(N)[C@H](O)[C@H](C)O2)Oc2ccc(cc2Cl)[C@H]1O [vancomycin]
- half-life ([1]; intramuscular and intraperitoneal administration): 0.6 h
- oral bioavailability ([1]; rats): below 0.5%
- oral bioavailability [2]: < 10%

SMILES: CC(C)CC(=O)c1c(O)cc2c(c1O)[C@@H](CC(C)C)C1=C(O2)C(C)(C)C(=O)C(C)(C)C1=O [rhodomyrtone, Rhodomyrtone]
- half-life ([3]; male, Sprague Dawley, plasma, rat, oral, 50 to 100 mg/kg, read-out: terminal elimination phase half-life (t1/2) (converted)): ~2.5 h
- CL/F [3, 18]: 266 mL/min/kg
- AUC(0-t) [3, 18]: 2680 ± 1090 ng·h/mL
- half-life ([3]; male, Sprague Dawley, plasma, rat, single oral dose 50 mg/kg, n = 12, read-out: t1/2 (converted)): 2.2 ± 0.74 h
- CL/F ([3]; male, Sprague Dawley, plasma, rat, single oral dose 100 mg/kg, n = 12): 221 mL/min/kg
- half-life ([3]; male, Sprague Dawley, plasma, rat, single oral dose 100 mg/kg, n = 12, read-out: t1/2 (converted)): 2.53 ± 0.92 h
- bioavailability ([3]; male, Sprague Dawley, rat, plasma, oral, estimated from SwissADME bioavailability score and AUC, no intravenous data): ~10%
- Tmax ([3]; male, Sprague Dawley, rat, plasma, 50 mg/kg, rat, single oral dose 50 mg/kg, n = 12, mean ± SD, read-out: Tmax): 1.92 ± 0.29 h
- Vd/F ([3]; male, Sprague Dawley, rat, plasma, 50 mg/kg, rat, single oral dose 50 mg/kg, n = 12, read-out: Vz/F): 48.5 ± 16.9 L/kg
- Vd/F ([3]; male, Sprague Dawley, rat, plasma, 100 mg/kg, rat, oral, 50 and 100 mg/kg doses (not significantly different), read-out: apparent total volume of distribution (Vz/F)): ~50 L/kg
- Tmax ([3]; male, Sprague Dawley, rat, plasma, 100 mg/kg, rat, oral, both 50 and 100 mg/kg doses, read-out: time to maximum plasma concentration (Tmax)): 2 h
- Tmax ([3]; male, Sprague Dawley, rat, plasma, 100 mg/kg, rat, single oral dose 100 mg/kg, n = 12, mean ± SD, read-out: Tmax): 2 h
- Vd/F ([3]; male, Sprague Dawley, rat, plasma, 100 mg/kg, rat, single oral dose 100 mg/kg, n = 12, read-out: Vz/F): 46.6 ± 13.8 L/kg
- concentration at 8 h ([3]; male, Sprague Dawley, rat plasma, oral 50 mg/kg, 8 h): ~100 ng/mL
- Cmax ([3]; male, Sprague Dawley, rat plasma, single oral dose 50 mg/kg, n = 12): 570 ± 120 ng/mL
- Cmax ([3]; male, Sprague Dawley, rat plasma, single oral dose 100 mg/kg, n = 12): 1310 ± 200 ng/mL
- AUC(0-inf) [3, 19]: 3410 ± 1040 ng·h/mL
- k el [3, 19]: 0.000139 s⁻¹
- AUC(0-inf) [3, 20]: 7820 ± 1530 ng·h/mL
- AUC(0-t) [3, 20]: 6650 ± 1130 ng·h/mL
- k el [3, 20]: 8.33e-05 s⁻¹
- Cmin ([3]; rat plasma, single oral dose 50 mg/kg, n = 12): 140 ± 60 ng/mL
- Cmin ([3]; rat plasma, single oral dose 100 mg/kg, n = 12): 310 ± 90 ng/mL
- time of rhodomyrtone concentrations above MIC (0.5–1 μg/mL) of most staphylococcal isolates ([3]; rat, oral 50 mg/kg): approximately 4 h
- Cmax relative to the MBCs for MRSA (0.03–1.00 μg/mL) ([3]; rat, oral 100 mg/kg): 2–3 times
- time of rhodomyrtone concentrations above MIC (0.5–1 μg/mL) of most staphylococcal isolates ([3]; rat, oral 100 mg/kg): ~8 h
- AUC0–8 as share of AUC0–∞ ([3]; rat, oral, 8 h sampling time): about 80%
- Bench-top stability, Accuracy (%) ([4]; 0 h, 0.1 µg/mL): 108.10%
- Bench-top stability, Accuracy (%) ([4]; 0 h, 100 µg/mL): 97.34%
- Bench-top stability, accuracy (range over all time points) ([4]; 0 to 8 h, 0.1 and 100 µg/mL): 92–109%
- Bench-top stability, Accuracy (%) ([4]; 1 h, 0.1 µg/mL): 93.38%
- Bench-top stability, Accuracy (%) ([4]; 1 h, 100 µg/mL): 96.58%
- Bench-top stability, Accuracy (%) ([4]; 2 h, 0.1 µg/mL): 108.61%
- Bench-top stability, Accuracy (%) ([4]; 2 h, 100 µg/mL): 95.97%
- Bench-top stability, Accuracy (%) ([4]; 4 h, 0.1 µg/mL): 101.47%
- Bench-top stability, Accuracy (%) ([4]; 4 h, 100 µg/mL): 94.58%
- Bench-top stability, Accuracy (%) ([4]; 6 h, 0.1 µg/mL): 101.24%
- Bench-top stability, Accuracy (%) ([4]; 8 h, 0.1 µg/mL): 95.96%
- Freeze–thaw stability, Accuracy (%) ([5]; Day 0, 0.1 µg/mL): 110.31%
- Freeze–thaw stability, Accuracy (%) ([5]; Day 0, 100 µg/mL): 103.71%
- Freeze–thaw stability, Accuracy (%) ([5]; Day 3 (three cycles −20 °C / 25 °C), 0.1 µg/mL): 105.93%
- Freeze–thaw stability, Accuracy (%) ([5]; Day 3 (three cycles −20 °C / 25 °C), 100 µg/mL): 108.10%
- Long-term stability, accuracy [6]: 94–114%
- MIC [7]: 0.39 µg/mL (≈ 0.881 µM)
- MIC [8]: 0.39 µg/mL (≈ 0.881 µM)
- MIC [9]: 0.19 µg/mL (≈ 0.429 µM)
- MIC [10]: 0.5 µg/mL (≈ 1.13 µM)
- MIC [11]: 0.5 to 2 µg/mL
- MIC [12]: 0.39 to 0.78 µg/mL
- MIC [13]: 0.5 to 1 µg/mL
- MBCs [14]: 0.03 to 1.00 µg/mL
- LD50 [15]: 2000 mg/kg
- resistance development [16]: not found to be resistant

SMILES: CC(=O)NC[C@H]1CN(c2ccc(N3CCOCC3)c(F)c2)C(=O)O1 [linezolid]
- Cmax ([17]; 50 mg/kg): 25000 ng/mL
- half-life [17]: 1.1 h
